Assay results as given in paper PMC8526204, “Effects of Sinapic Acid Combined with Cisplatin on the Apoptosis and Autophagy of the Hepatoma Cells HepG2 and SMMC-7721” (Evidence-based Complementary and Alternative Medicine : eCAM, 2021).
Counter-ions that a name gives are not always drawn. Like-named read-outs stand apart in the source and are kept apart here. Peptide text beside a SMILES is read from it. * marks the point of attachment. Cbz = O=C(OCc1ccccc1)*; CH2F = FC*

Tests used:
HepG2 cells [1] = test: Cell cycle analysis by flow cytometry (PI), HepG2; assay type: cell-based, human; details: 72 h, control 12.79 ± 0.89%
Experimental: The HepG2 and SMMC-7721 cells were seeded in a 6-well plate (5 × 10^5 cells/well). The cells were photographed using the inverted microscope (Eclipse Ti-S, Nikon Co., Ltd., Japan) to observe the morphological changes. The cells were collected, treated with 70% precooled ethanol (1 mL) in an ice bath, blew and mixed well, and then, fixed overnight at 4°C. The cells were stained with 25 µL PI staining solution and 10 µL RNase staining solution, according to the manufacturer's protocol, and the cell cycle was analyzed by flow cytometry (Attune NxT, Thermo Fisher Scientific Inc., USA).

SMMC-7721 cells [2] = test: Western blot of apoptosis- and autophagy-related proteins, SMMC-7721; assay type: cell-based, human
Experimental: (§1) The HepG2 and SMMC-7721 cells treated with Sa/DDP were collected and using radioimmunoprecipitation assay buffer to lyse the cells at 4°C for 30 min to extract the total protein. The protein concentration of the samples was measured using the BCA protein assay kit, after centrifugation at 12,000 g at 4°C for 5 min, and denatured by boiling at 100°C. An equal amount of protein (30 μg) was resolved using the sodium dodecyl sulfate-polyacrylamide gel (10–12%) electrophoresis for 1.5 h. The proteins were then transferred onto a membrane of nitrocellulose and blocked using 5% skimmed milk for 2 h at 20°C, followed by rinsing thrice using PBS containing 0.1% Tween 20 (PBS-T), for 5 min each. Furthermore, the […] were incubated in diluted anti-Bax, Bcl-2 PARP, c-PARP, a-caspase-3, caspase-3, p62, Beclin-1, Atg5, LC3I/II, and β-actin according to 1 : 1,000, incubated overnight at 4°C, and subsequently washed repeatedly the next day. The membranes were incubated with a secondary antibody (1 : 3000) for 1 h at ambient temperature and washed repeatedly. After washing the membrane, it was developed by the FluorChem M image acquisition system (Protein Simple Inc., USA). The quantification was performed (where appropriate) using the ImageJ software (Rawak Software Inc., Stuttgart, Germany).

HepG2 cells [3] = test: Western blot of apoptosis- and autophagy-related proteins, HepG2; assay type: cell-based, human
Experimental: as §1

[4] = MTT cell viability assay, HepG2; assay type: cell-based, human; details: human, HepG2 cells
Experimental: (§2) The cells HepG2, SMMC-7721, and HL-7702 were seeded in 96-well plates containing 6,000 cells per well, supplemented with various concentrations of Sa (0–2,000 μM) and DDP (5 μM). After the cells were incubated at 37°C for 24, 48, and 72 h, they were cultured with 20 µL MTT (5 mg/mL) for 4 h. The formazan crystals were dissolved by adding 150 µL of dimethyl sulfoxide, followed by recording the absorbance at 490 nm using a microplate reader (Varioskan LUX, Thermo Fisher Scientific Inc., USA) and calculating the percentage of cell viability.

HepG2 cells [5] = test: MTT cell viability assay, HepG2; assay type: cell-based, human; details: for IC50: Homo sapiens, HepG2, Sa treatment, MTT
Experimental: as §2

SMMC-7721 cells [6] = test: Colony formation assay, SMMC-7721; assay type: cell-based, human; details: SMMC-7721, Sa 600 μM, 72 h then 10 d
Experimental: (§3) The HepG2 and SMMC-7721 cells were seeded in a 12-well plate (200–300 cells/well). […] Then, the recovery medium was added to the complete medium (1 mL) and cultured for 10 d. Subsequently, these cells were fixed in 4% paraformaldehyde solution (1 mL) at 37°C for 2 h, stained with 0.5% crystal violet staining solution (0.5 mL) for 15 min, and photographed, and the numbers of colonies formed were tabulated. The findings were expressed as a percentage of the number of colonies in each experimental group (assuming that the control group was 100%). The ImageJ software (Rawak Software Inc., Stuttgart, Germany) was used for analyzing the data.

SMMC-7721 cells [7] = test: Transwell migration assay, SMMC-7721; assay type: cell-based, human; details: SMMC-7721, Sa 600 μM, 24 h
Experimental: (§4) The lower section contained 700 μL of DMEM (including 10% FBS) along with the drug to be loaded. Briefly, 3 × 10^4 cells were added to the upper chamber while the lower chamber was filled with 10% FBS after incubating the cells for 24 h. The cells were cultured at 37°C for 24 h, fixed with a 4% paraformaldehyde solution, and stained with 0.5 mL of crystal violet. Subsequently, the cells in the upper chambers were removed by gently dabbing them with cotton swabs. These cells were photographed, and the invaded cells were observed using an inverted microscope (DM4 B, Leica Inc., Germany). Finally, the stained cells were counted in five randomly chosen fields under the microscope for further analysis.

HepG2 cells [8] = test: Colony formation assay, HepG2; assay type: cell-based, human; details: HepG2, Sa 600 μM, 72 h then 10 d
Experimental: as §3

HL-7702 cells = test: MTT cell viability assay, normal liver HL-7702; assay type: cell-based, human; details: for IC50: Homo sapiens, L02, HL-7702, Sa treatment, MTT
Experimental: as §2, with “After” for “The cells HepG2, SMMC-7721, and HL-7702 were seeded in 96-well plates containing 6,000 cells per well, supplemented with various concentrations of Sa (0–2,000 μM) and DDP (5 μM). After”

HepG2 cells [9] = test: Annexin V-FITC/PI apoptosis assay, HepG2; assay type: cell-based, human; details: HepG2, Sa 600 μM, 72 h; control 13.06 ± 1.04%
Experimental: (§5) The HepG2 and SMMC-7721 cells were seeded into a 6-well plate (1 × 10^5 cell/well), and after 72 h, the cells in each group were treated with trypsin and collected. The cells were rinsed twice in PBS, and a concentration of 5 × 10^5 cells/mL was treated with a binding buffer. According to the manufacturer's protocol, the cells were stained with 5 µL PI staining solution and 10 µL Annexin V-FITC staining solution with incubation for 30 min in the dark.

HepG2 cells [10] = test: Transwell migration assay, HepG2; assay type: cell-based, human; details: HepG2, Sa 600 μM, 24 h
Experimental: as §4

SMMC-7721 cells [11] = test: MTT cell viability assay, SMMC-7721; assay type: cell-based; details: Homo sapiens, SMMC-7721, Sa treatment
Experimental: as §2, with “After” for “The cells HepG2, SMMC-7721, and HL-7702 were seeded in 96-well plates containing 6,000 cells per well, supplemented with various concentrations of Sa (0–2,000 μM) and DDP (5 μM). After”

SMMC-7721 cells [12] = test: Annexin V-FITC/PI apoptosis assay, SMMC-7721; assay type: cell-based, human; details: SMMC-7721, Sa 600 μM, 72 h; control 3.67 ± 0.34%
Experimental: as §5

[13] = HepG2, HCQ 40 μM pretreatment 1 h then Sa 600 µM/DDP 5 µM 72 h
[14] = SMMC-7721, Sa 600 μM, 72 h, vs control
[15] = HepG2, Sa 600 μM, 72 h, vs control
[16] = HepG2, Sa 600 μM, 72 h, western blot
[17] = HepG2, Z-VAD-FMK 20 µM pretreatment 1 h then Sa 600 µM/DDP 5 µM 72 h

N.N.[Cl][Pt][Cl] [DDP, Cisplatin]
percentage of cells in the G2/M phase (HepG2 cells [1]; HepG2, DDP 5 μM): 15.40 ± 1.23%

CCN(CCO)CCCC(C)Nc1ccnc2cc(Cl)ccc12 (stereo not shown) [HCQ, Hydroxychloroquine sulfate, reference compound]
a-caspase-3 protein expression increase compared to Sa/DDP treatment (SMMC-7721 cells [2]; SMMC-7721, HCQ 40 µM pretreatment 1 h then Sa 600 µM/DDP 5 µM 72 h): 0.73 times | a-caspase-3 protein expression increase compared to Sa/DDP treatment (HepG2 cells [3]; [13]): 0.34 times | viability at 1 h, 40 μM ([4]; HepG2, HCQ 40 μM pretreatment 1 h, no Sa/DDP, untreated 100.00 ± 19.04%): 98.3 ± 18.7% | reduction of cell viability compared to Sa/DDP (HepG2 cells [5]; [13]): 19.07 ± 4.70%

COc1cc(/C=C/C(=O)O)cc(OC)c1O [Sa, Sinapic acid]
proliferation activity (colony formation, control = 100%) (SMMC-7721 cells [6]): 72.90 ± 1.29% | percentage of cells in the G2/M phase (HepG2 cells [1]; HepG2, Sa 600 μM): 22.60 ± 2.26% | decrease of the migration rate (SMMC-7721 cells [7]): 49.80 ± 5.78% | Atg5 expression increase (SMMC-7721 cells [2]; [14]): 4.7 times | Beclin-1 expression increase (SMMC-7721 cells [2]; [14]): 2.5 times | p62 expression decrease (SMMC-7721 cells [2]; [14]): 1.7 times | proliferation activity (colony formation, control = 100%) (HepG2 cells [8]): 71.46 ± 2.23% | inhibitory effect on normal liver cells (HL-7702 cells; HL-7702, MTT): not pronounced | IC50 (HL-7702 cells; 24 h, read-out: IC50 24 h): 5060 µM | IC50 (HL-7702 cells; 48 h, read-out: IC50 48 h): 4430 µM | IC50 (HL-7702 cells; 72 h, read-out: IC50 72 h): 4020 µM | apoptosis rate (HepG2 cells [9]): 36.00 ± 2.52% | decrease of the migration rate (HepG2 cells [10]): 41.52 ± 8.80% | IC50 (SMMC-7721 cells [11]; 24 h, read-out: IC50 24 h): 2580 µM | IC50 (SMMC-7721 cells [11]; 48 h, read-out: IC50 48 h): 1620 µM | IC50 (SMMC-7721 cells [11]; 72 h, read-out: IC50 72 h): 1350 µM | apoptosis rate (SMMC-7721 cells [12]): 10.74 ± 0.75% | Atg5 protein expression increase (HepG2 cells [3]; [15]): 2.9 fold | Beclin-1 protein expression increase (HepG2 cells [3]; [15]): 4.8 fold | p62 protein expression decrease (HepG2 cells [3]; [15]): 2.3 fold | cleaved PARP protein increase vs control (HepG2 cells [3]; [16]): 4.3 times | cleaved caspase-3 protein increase vs control (HepG2 cells [3]; [16]): 13.6 times | viability at 72 h, 600 µM ([4]; HepG2, Sa 600 µM, 72 h): 71.3 ± 4.08% | IC50 (HepG2 cells [5]; 24 h, read-out: IC50 24 h): 1800 µM | IC50 (HepG2 cells [5]; 48 h, read-out: IC50 48 h): 1380 µM | IC50 (HepG2 cells [5]; 72 h, read-out: IC50 72 h): 794 µM

COC(=O)C[C@H](NC(=O)[C@H](C)NC(=O)[C@@H](NC(=O)OCc1ccccc1)C(C)C)C(=O)CF [Z-VAD-FMK, reference compound] (Cbz-Val-Ala-Asp(OMe)-CH2F)
LC3II protein expression increase compared to group without Z-VAD-FMK (HepG2 cells [3]; [17]): 45.30 ± 2.05% | caspase protein lysis decrease compared to group without Z-VAD-FMK (HepG2 cells [3]; [17]): 25.22 ± 1.22% | cell viability (HepG2 cells [5]; HepG2, Z-VAD-FMK 20 μM pretreatment 1 h, no Sa/DDP, untreated 100.00 ± 19.04%): 100.66 ± 12.14%
